Source: PubChem BioAssay AID330 (DTP/NCI, 2004)
Values joined by “and” are separate entries in the source; they are usually repeats but may differ in a detail not shown here. Equal values may be shown once. Inconclusive results and toxic doses are left out.

Test system: P388 leukemia ip, CD2F1 mice, survival T/C
Experiment: NCI In Vivo Anticancer Drug Screen. Data for tumor model P388 Leukemia (intraperitoneal) in CD2F1 (CDF1) mice
Settings: endpoint: median survival time, higher = longer survival
Outline: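 Mice carrying the transplanted tumor received test compound or vehicle. Survival was recorded in each group, and the value is the treated-group measurement divided by that of the vehicle-treated control group.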

[1] = dose: 60.0 mg/kg/injection, schedule: Q01DX005 (ip), vehicle: saline with Tween-80
[2] = dose: 120.0 mg/kg/injection, schedule: Q01DX005 (ip), vehicle: saline with Tween-80
[3] = dose: 240.0 mg/kg/injection, schedule: Q01DX005 (ip), vehicle: saline with Tween-80
[4] = dose: 120.0 mg/kg/injection, schedule: Q01DX005 (ip), vehicle: Klucel (hydroxypropylcellulose) (HPC)
[5] = dose: 240.0 mg/kg/injection, schedule: Q01DX005 (ip), vehicle: Klucel (hydroxypropylcellulose) (HPC)
[6] = dose: 50.0 mg/kg/injection, schedule: Q01DX005 (ip), vehicle: saline with Tween-80
[7] = dose: 100.0 mg/kg/injection, schedule: Q01DX005 (ip), vehicle: saline with Tween-80
[8] = dose: 100.0 mg/kg/injection, schedule: Q01DX009 (ip), vehicle: Klucel (hydroxypropylcellulose) (HPC)
[9] = dose: 200.0 mg/kg/injection, schedule: Q01DX009 (ip), vehicle: Klucel (hydroxypropylcellulose) (HPC)
[10] = dose: 50.0 mg/kg/injection, schedule: Q01DX009 (ip), vehicle: Klucel (hydroxypropylcellulose) (HPC)
[11] = dose: 100.0 mg/kg/injection, schedule: Q01DX009 (ip), vehicle: saline with Tween-80

## CCc1nc(N)nc(N)c1-c1ccc(NC2CCCCC2)c([N+](=O)[O-])c1
[1]
  T/C: 101 % of control
[2]
  T/C: 95 % of control
[3]
  T/C: 94 % of control

## CCCCCCCN(CCCCCCC)C(=N)c1ccc(OC)c2ccccc12
dose: 6.25 mg/kg/injection, schedule: Q01DX005 (ip), vehicle: Klucel (hydroxypropylcellulose) (HPC)
  T/C: 101 % of control
dose: 12.5 mg/kg/injection, schedule: Q01DX005 (ip), vehicle: Klucel (hydroxypropylcellulose) (HPC)
  T/C: 101 % of control
dose: 25.0 mg/kg/injection, schedule: Q01DX005 (ip), vehicle: Klucel (hydroxypropylcellulose) (HPC)
  T/C: 89 % of control

## O=C(O)C1C2CC3CC2C(C3)C1C(=O)O (stereo not given)
dose: 60.0 mg/kg/injection, schedule: Q01DX005 (ip), vehicle: Klucel (hydroxypropylcellulose) (HPC)
  T/C: 100 % of control
[4]
  T/C: 100 % of control
[5]
  T/C: 99 % of control

## CCN(CC)C(=O)c1ccc(C)c2c1Nc1c(c(C)c3oc(=O)c(C)nc3c1C(=O)N(CC)CC)O2
dose: 7.5 mg/kg/injection, schedule: Q01DX005 (ip), vehicle: Klucel (hydroxypropylcellulose) (HPC)
  T/C: 97 % of control
dose: 15.0 mg/kg/injection, schedule: Q01DX005 (ip), vehicle: Klucel (hydroxypropylcellulose) (HPC)
  T/C: 90 % of control
[4]
  T/C: 88 % of control
[5]
  T/C: 92 % of control

## COC(=O)C1=C(O)C(C(=O)OC)=C2C1=C(C(=O)OC)C(=O)C2C(=O)OC (stereo not given)
dose: 50.0 mg/kg/injection, schedule: Q01DX005 (ip), vehicle: water
  T/C: 97 % of control
dose: 100.0 mg/kg/injection, schedule: Q01DX005 (ip), vehicle: water
  T/C: 98 % of control
dose: 200.0 mg/kg/injection, schedule: Q01DX005 (ip), vehicle: water
  T/C: 95 % of control

## O=[N+]([O-])c1ccc(-c2nc3ncncc3[nH]2)cc1
dose: 6.25 mg/kg/injection, schedule: Q01DX009 (ip), vehicle: Klucel (hydroxypropylcellulose) (HPC)
  T/C: 107 % of control
dose: 12.5 mg/kg/injection, schedule: Q01DX009 (ip), vehicle: Klucel (hydroxypropylcellulose) (HPC)
  T/C: 99 % of control

## O=C1CC(=O)N(C2CCCCC2)C(=O)N1c1ccccc1S(=O)(=O)Oc1ccccc1
[6]
  T/C: 103 % of control
[7]
  T/C: 101 % of control
dose: 200.0 mg/kg/injection, schedule: Q01DX005 (ip), vehicle: saline with Tween-80
  T/C: 103 % of control

## OC(COc1c2ccccc2nc2ccccc12)CN1CCN(c2ccccc2)CC1 (stereo not given)
[6]
  T/C: 94 % of control
[7]
  T/C: 90 % of control

## COc1ccccc1/C=C/C1=C(C)C(=O)CC(c2ccccc2OC)C1C (stereo not given)
[8]
  T/C: 100 % of control
[9]
  T/C: 98 % of control
dose: 400.0 mg/kg/injection, schedule: Q01DX009 (ip), vehicle: Klucel (hydroxypropylcellulose) (HPC)
  T/C: 92 % of control

## CCn1c(=O)c2[nH]c(Br)nc2n(C2CC2)c1=O
[10]
  T/C: 104 % of control
[8]
  T/C: 106 % of control

## O=C(Nc1cccc(Cl)c1)N1CCNC1=S
[10]
  T/C: 102 % of control
[8]
  T/C: 104 % of control

## C/C(=C\Cl)CN(C)C
dose: 25.0 mg/kg/injection, schedule: Q01DX009 (ip), vehicle: saline with Tween-80
  T/C: 111 % of control
dose: 50.0 mg/kg/injection, schedule: Q01DX009 (ip), vehicle: saline with Tween-80
  T/C: 111 % of control
[11]
  T/C: 116 % of control

## C=NN(C)C
dose: 2.39 mg/kg/injection, schedule: Q01DX009 (ip), vehicle: Klucel (hydroxypropylcellulose) (HPC)
  T/C: 95 % of control
dose: 4.75 mg/kg/injection, schedule: Q01DX009 (ip), vehicle: Klucel (hydroxypropylcellulose) (HPC)
  T/C: 102 % of control
dose: 9.5 mg/kg/injection, schedule: Q01DX009 (ip), vehicle: Klucel (hydroxypropylcellulose) (HPC)
  T/C: 103 % of control
dose: 19.0 mg/kg/injection, schedule: Q01DX009 (ip), vehicle: Klucel (hydroxypropylcellulose) (HPC)
  T/C: 105 % of control

## Cc1cc(C)nc(NS(=O)(=O)c2ccc(Nc3c4ccccc4nc4ncccc34)cc2)n1
[1]
  T/C: 97 % of control
[2]
  T/C: 90 % of control
[3]
  T/C: 90 % of control

## CS(=O)(=O)OCC(O)C(O)C(O)C(O)COS(C)(=O)=O (stereo not given)
dose: 50.0 mg/kg/injection, schedule: Q01DX010 (ip), vehicle: saline
  T/C: 100 % of control
dose: 100.0 mg/kg/injection, schedule: Q01DX010 (ip), vehicle: saline
  T/C: 100 % of control
dose: 200.0 mg/kg/injection, schedule: Q01DX010 (ip), vehicle: saline
  T/C: 172 % of control
dose: 400.0 mg/kg/injection, schedule: Q01DX010 (ip), vehicle: saline
  T/C: 209 % of control

## O=NN(C(=O)NC1CCOCC1)C1CCOCC1
dose: 25.0 mg/kg/injection, schedule: Q01DX001 (ip), vehicle: distilled water + Tween-80
  T/C: 101 % of control
dose: 50.0 mg/kg/injection, schedule: Q01DX001 (ip), vehicle: distilled water + Tween-80
  T/C: 101 % of control
dose: 100.0 mg/kg/injection, schedule: Q01DX001 (ip), vehicle: distilled water + Tween-80
  T/C: 102 % of control
dose: 200.0 mg/kg/injection, schedule: Q01DX001 (ip), vehicle: distilled water + Tween-80
  T/C: 105 % of control
dose: 400.0 mg/kg/injection, schedule: Q01DX001 (ip), vehicle: distilled water + Tween-80
  T/C: 102 % of control

## C[N+](C)(C)CCBr
dose: 3.12 mg/kg/injection, schedule: Q01DX009 (ip), vehicle: saline
  T/C: 100 % of control
dose: 6.25 mg/kg/injection, schedule: Q01DX009 (ip), vehicle: saline
  T/C: 104 % of control
dose: 12.5 mg/kg/injection, schedule: Q01DX009 (ip), vehicle: saline
  T/C: 101 % of control
dose: 12.5 mg/kg/injection, schedule: Q04DX003 (ip), vehicle: saline
  T/C: 105 % of control
dose: 25.0 mg/kg/injection, schedule: Q01DX009 (ip), vehicle: saline
  T/C: 101 % of control
dose: 25.0 mg/kg/injection, schedule: Q04DX003 (ip), vehicle: saline
  T/C: 100 % of control

## NC(C=O)C(O)C(O)C(O)CO (stereo not given)
[11]
  T/C: 109 % of control
dose: 100.0 mg/kg/injection, schedule: Q04DX003 (ip), vehicle: saline sonified
  T/C: 100 % of control
dose: 200.0 mg/kg/injection, schedule: Q01DX009 (ip), vehicle: saline with Tween-80
  T/C: 95 % of control
dose: 200.0 mg/kg/injection, schedule: Q04DX003 (ip), vehicle: saline sonified
  T/C: 100 % of control
dose: 400.0 mg/kg/injection, schedule: Q01DX009 (ip), vehicle: saline with Tween-80
  T/C: 95 % of control
dose: 400.0 mg/kg/injection, schedule: Q04DX003 (ip), vehicle: saline sonified
  T/C: 90 % of control

## CC(=O)C1CCC=CC1Sc1ccccc1 (stereo not given)
[10]
  T/C: 103 % of control
dose: 100.0 mg/kg/injection, schedule: Q01DX001 (ip), vehicle: saline
  T/C: 93 % of control
[8]
  T/C: 96 % of control
dose: 200.0 mg/kg/injection, schedule: Q01DX001 (ip), vehicle: saline
  T/C: 101 % of control
[9]
  T/C: 121 % of control
dose: 400.0 mg/kg/injection, schedule: Q01DX001 (ip), vehicle: saline
  T/C: 98 % of control

## CC(=O)OCC12C(OC(C)=O)C(=O)C3C(OC(C)=O)C14OC3(C)COC(=O)c1cccnc1C(C)C(C)C(=O)OC(C(OC(C)=O)C2OC(C)=O)C4(C)O (stereo not given)
dose: 3.0 mg/kg/injection, schedule: Q01DX009 (ip), vehicle: Klucel (hydroxypropylcellulose) (HPC)
  T/C: 104 % of control
dose: 6.0 mg/kg/injection, schedule: Q01DX009 (ip), vehicle: Klucel (hydroxypropylcellulose) (HPC)
  T/C: 93 % of control
dose: 12.0 mg/kg/injection, schedule: Q01DX009 (ip), vehicle: Klucel (hydroxypropylcellulose) (HPC)
  T/C: 96 % of control
dose: 24.0 mg/kg/injection, schedule: Q01DX009 (ip), vehicle: Klucel (hydroxypropylcellulose) (HPC)
  T/C: 96 % of control

## CSCC[C@H](NC(C)=O)B1OCCO1
dose: 60.0 mg/kg/injection, schedule: Q01DX005 (ip), vehicle: saline
  T/C: 100 % of control
dose: 120.0 mg/kg/injection, schedule: Q01DX005 (ip), vehicle: saline
  T/C: 104 % of control
dose: 240.0 mg/kg/injection, schedule: Q01DX005 (ip), vehicle: saline
  T/C: 109 % of control

## Cc1cc2c(oc(=O)c3cc(C)sc32)s1
dose: 50.0 mg/kg/injection, schedule: Q01DX005 (ip), vehicle: Klucel (hydroxypropylcellulose) (HPC)
  T/C: 99 % of control
dose: 100.0 mg/kg/injection, schedule: Q01DX005 (ip), vehicle: Klucel (hydroxypropylcellulose) (HPC)
  T/C: 103 % of control
dose: 200.0 mg/kg/injection, schedule: Q01DX005 (ip), vehicle: Klucel (hydroxypropylcellulose) (HPC)
  T/C: 97 % of control

## CN(C)CC(CN(C)C)C(=O)c1ccc(Oc2ccc(Cl)cc2)cc1
dose: 1.88 mg/kg/injection, schedule: Q01DX005 (ip), vehicle: saline
  T/C: 110 % of control
dose: 3.75 mg/kg/injection, schedule: Q01DX005 (ip), vehicle: saline
  T/C: 116 % of control
dose: 7.5 mg/kg/injection, schedule: Q01DX005 (ip), vehicle: saline
  T/C: 107 % of control and 112 % of control
